# Like-named read-outs stand apart in the source and are kept apart here.
# Assays:
# [1] = tested on: Pseudomonas; experiment: MIC, diffusion method in gelose medium at pH 7 (Table I); assay type: cell-based; details: read-out: minimum concentration of inhibition
# Protocol: (§1) The antibiotic activity was determined by the diffusion method in a gelose medium at a pH of 7. The following Table expresses the minimum concentration of inhibition in mcg/ml (CMl) for the products against different microbial strains.
# [2] = tested on: Strept. hemoly. Todd Hewitt; experiment: as above; assay type: cell-based
# Protocol: as §1
# [3] = tested on: Strept. Fecalis 5432; experiment: as above; assay type: cell-based
# Protocol: as §1
# [4] = tested on: Staph. aureus oxford U.C. 1061 P(+); experiment: as above; assay type: cell-based; details: Staphylococcus aureus
# Protocol: as §1
# [5] = tested on: Staph. U.C. 1128 P(-); experiment: as above; assay type: cell-based; details: Staph. UC 1128, penicillin resistant, read-out: minimum concentration of inhibition
# Protocol: as §1
# [6] = tested on: Escher. Coli UC 1020; experiment: as above; assay type: cell-based; details: Escherichia coli
# Protocol: as §1
# [7] = tested on: Escher. Coli UC 1261; experiment: as above; assay type: cell-based; details: Escherichia coli
# Protocol: as §1
# [8] = tested on: Bac. Subt.; experiment: as above; assay type: cell-based
# Protocol: as §1
# [9] = solubility; assay type: physicochemical
# [10] = tested on: Staphylococcus aureus 889; experiment: MIC (Table II); assay type: cell-based; details: read-out: minimum inhibition concentration
# Protocol: as §1
# (§2) Using the same procedure as in Table I, the minimum inhibition concentration in mcg/ml was determined against different microbial strains with L(-) cis 7-[D(-)-α-aminophenylacetamido]-3-isopropyl-3-cepheme-4-carboxylic acid (product A) of Example 9.
# [11] = tested on: Staphylococcus aureus A8P; experiment: MIC (Table II); assay type: cell-based; details: read-out: minimum inhibition concentration
# Protocol: as §1, §2
# [12] = tested on: Staphylococcus aureus 9482; experiment: MIC (Table II); assay type: cell-based; details: read-out: minimum inhibition concentration
# Protocol: as §1, §2
# [13] = tested on: Staphylococcus aureus 9729; experiment: MIC (Table II); assay type: cell-based; details: read-out: minimum inhibition concentration
# Protocol: as §1, §2
# [14] = tested on: Staphylococcus aureus 4546; experiment: MIC (Table II); assay type: cell-based; details: read-out: minimum inhibition concentration
# Protocol: as §1, §2
# [15] = tested on: Staphylococcus aureus 9373; experiment: MIC (Table II); assay type: cell-based; details: read-out: minimum inhibition concentration
# Protocol: as §1, §2
# [16] = tested on: certain gram negative bacteria, particularly coliform bacteria; experiment: antibacterial activity, statement
# [17] = tested on: gram positive bacteria such as staphylococci and streptococci; experiment: antibacterial activity, statement; details: particularly penicillin resistant staphylococci
# [18] = Strept. hemoly. Todd Hewitt, pH 7, read-out: minimum concentration of inhibition
# [19] = Strept. Fecalis 5432, pH 7, read-out: minimum concentration of inhibition
# [20] = UC1061, Staph. aureus oxford UC 1061, penicillin sensitive, pH 7, read-out: minimum concentration of inhibition
# [21] = UC1020, Escher. Coli UC 1020, pH 7, read-out: minimum concentration of inhibition
# [22] = UC1261, Escher. Coli UC 1261, pH 7, read-out: minimum concentration of inhibition
# [23] = Bac. Subt., pH 7, read-out: minimum concentration of inhibition
# [24] = pH 7, read-out: minimum concentration of inhibition
Compound,MIC [1] [µg/mL],"MIC [2, 18] [µg/mL]","MIC [3, 19] [µg/mL]","MIC [4, 20] [µg/mL]",MIC [5] [µg/mL],"MIC [6, 21] [µg/mL]","MIC [7, 22] [µg/mL]","MIC [8, 23] [µg/mL]",solubility in ethanol [9],solubility in water [9],solubility in ether [9],further results
"CC(C)C1=C(C(=O)O)N2C(=O)[C@@H](NC(=O)Cc3ccc([N+](=O)[O-])cc3)[C@H]2SC1 (relative stereo) [Example 6, DL cis 7-p-nitrophenylacetamido-3-isopropyl-3-cepheme-4-carboxylic acid]",> 200,5,> 40,0.4,2,> 200,> 200,0.2,slightly soluble,insoluble,,
"CC(C)C1=C(C(=O)O)N2C(=O)[C@@H](NC(=O)Cc3ccc(N)cc3)[C@H]2SC1 (relative stereo) [Example 7, DL cis 7-p-aminophenylacetamido-3-isopropyl-3-cepheme-4-carboxylic acid]",> 200,10,> 40,2,,> 200,> 200,0.05,slightly soluble,slightly soluble,insoluble,solubility in chloroform ([9]; chloroform): slightly soluble
"CC(C)C1=C(C(=O)O)N2C(=O)[C@@H](NC(=O)Cc3cccs3)[C@H]2SC1 (relative stereo) [Example 8, DL cis 7-(2'-thienyl)-acetamido-3-isopropyl-3-cepheme-4-carboxylic acid]",> 200,10,> 40,2,5,> 200,> 200,0.4,slightly soluble,insoluble,,solubility in methanol ([9]; methanol): soluble
"CC1=C(C(=O)O)N2C(=O)[C@@H](NC(=O)[C@H](N)c3ccccc3)[C@H]2SC1 [Cephalexin, reference compound]",,,,,10,,,,,,,"MIC [2, 24]: 10 µg/mL; MIC [3, 24]: 60 µg/mL; MIC ([4]; UC1061, pH 7, read-out: minimum concentration of inhibition): 2 µg/mL; MIC ([6]; UC1020, pH 7, read-out: minimum concentration of inhibition): 20 µg/mL; MIC ([7]; UC1261, pH 7, read-out: minimum concentration of inhibition): 20 µg/mL; MIC [8, 24]: 0.2 µg/mL; MIC ([10]; Staphylococcus aureus, 889, 24 h): 5 µg/mL; MIC ([10]; Staphylococcus aureus, 889, 48 h): 10 µg/mL; MIC ([11]; 24 h): 2 µg/mL; MIC ([11]; 48 h): 5 µg/mL; MIC ([12]; Staphylococcus aureus, 9482, 24 h): 1 µg/mL; MIC ([12]; Staphylococcus aureus, 9482, 48 h): 1 µg/mL; MIC ([13]; Staphylococcus aureus, 9729, 24 h): 2 µg/mL; MIC ([13]; Staphylococcus aureus, 9729, 48 h): 3 µg/mL; MIC ([14]; Staphylococcus aureus, 4546, 24 h): 1 µg/mL; MIC ([14]; Staphylococcus aureus, 4546, 48 h): 3 µg/mL; MIC ([15]; Staphylococcus aureus, 9373, 24 h): 2 µg/mL; MIC ([15]; Staphylococcus aureus, 9373, 48 h): 3 µg/mL"
"N[C@@H](C(=O)N[C@@H]1C(=O)N2C(C(=O)O)=C(C3CCCC3)CS[C@H]12)c1ccccc1 [Example 10, L(+) 6R, 7R 7-[R(-)-α-aminophenylacetamido]-3-cyclopentyl-3-cepheme-4-carboxylicacid]",,10,20,0.4,1,,,0.05,slightly soluble,slightly soluble,insoluble,activity against certain gram negative bacteria [16]: active; activity against gram positive bacteria [17]: active
"O=C(Cc1ccc([N+](=O)[O-])cc1)NC1C(=O)N2C(C(=O)O)=C(C3CCCC3)CSC12 (stereo not drawn) [Example 11, DL cis 7-p-nitrophenylacetamido-3-cyclopentyl-3-cepheme-4-carboxylic acid]",,> 40,> 40,0.2,0.4,,,0.1,slightly soluble,insoluble,insoluble,
"Nc1ccc(CC(=O)NC2C(=O)N3C(C(=O)O)=C(C4CCCC4)CSC23)cc1 (stereo not drawn) [Example 12, DL cis 7-p-aminophenylacetamido-3-cyclopentyl-3-cepheme-4-carboxylic acid]",,,,,,,,,soluble,slightly soluble,insoluble,
"O=C(Cc1cccs1)NC1C(=O)N2C(C(=O)O)=C(C3CCCC3)CSC12 (stereo not drawn) [Example 13, DL cis 7-(2'-thienyl)-acetamido-3-cyclopentyl-3-cepheme-4-carboxylic acid]",,> 40,20,1,,,,1,,slightly soluble,insoluble,
